Measured values taken from patent US20230136075A1, “TREATMENT FOR SEPSIS-INDUCED ORGAN DYSFUNCTION” (The Florey Institute of Neuroscience and Mental Health, priority 2020, published 2023).

How the values were obtained:
Assay type in all cases: in vivo
[1] = system: septic human patient with severe COVID-19; assay: Mega-dose sodium ascorbate in one septic patient with severe COVID-19 (Example 2)
Source text: FIG. 6. Changes in systemic hemodynamics and renal function in response to mega-dose sodium ascorbate (Na Asc) treatment in one septic human patient with a severe case of COVID-19 disease 2019 (n=1). Norepinephrine dose (A), arterial blood oxygen tension (PO2) (filled squares) and inspired oxygen fraction (open circles) (B), mean arterial pressure (C), serum creatinine (D), heart rate (E), and urine output (F) are presented at pre-treatment (time 0), after a 30-min infusion of Na Asc bolus therapy (BT, 30 g), and then at hourly intervals during an infusion of Na Asc for 6.5 hr (4.6 g/hr).
A person was admitted to ICU with severe COVID-19 disease. The patient presented with acute respiratory distress syndrome (ARDS), vasodilatory shock and acute kidney injury, with a temperature of 40° C. The patient was intubated and placed on a ventilator. At noon, their urinary output was 10 ml/hr.
The patient (weighing approximately 80 kg) was administered 30 g of intravenous sodium ascorbate over 30 minutes beginning at 1 pm, followed by an infusion of 30 g sodium ascorbate over the next 6 hours.

[2] = system: ovine sepsis induced by intravenous infusion of live E. coli; assay: Vitamin C dose response in ovine sepsis (Example 3)
Protocol: The inventors then sought to determine the minimum dose of intravenous vitamin C required to reverse the pathophysiological features of sepsis and acute kidney injury, using the ovine sepsis model described in Example 1. Surgical procedures and initiation of gram negative sepsis were as described in Example 1.
At 24 hours of sepsis, sheep were randomised into one of four groups (n=2 each): (i) sodium ascorbate treatment at 1 g/kg for 7 hours; (ii) sodium ascorbate treatment at 2 g/kg for 7 hours; (iii) sodium ascorbate treatment at 3 g/kg for 7 hours; or (iv) fluid-matched vehicle. Norepinephrine doses were titrated to achieve a target blood pressure (75-80 mm Hg). All sodium ascorbate doses were given as a bolus followed by a continuous infusion. The bolus doses for the 1, 2 and […] treatments were, respectively, 0.133, 0.267 and 0.4 g/kg (5.3, 10.7 and 16 g for a 40 kg sheep. Sodium ascorbate was diluted in 1:1 ratio with 5% glucose prior to intravenous administration. At 31 hours of sepsis, animals were euthanised for tissue collection to facilitate molecular and histological investigations.

[3] = system: patients with septic shock; assay: Randomised, double-blind, placebo-controlled trial of mega-dose vitamin C for septic shock (Example 4); details: trial ongoing
Source text: A randomised, double-blind, placebo-controlled trial is being conducted to evaluate whether the administration of intravenous mega-dose vitamin C (60 g/day) increases urine output in patients with septic shock admitted to an intensive care unit (ICU).
Patients admitted to the Austin Hospital ICU with the primary diagnosis of septic shock defined according to the Sepsis-3 criteria are screened for eligibility. All the diagnostic criteria of septic shock (based on the SEPSIS-3 criteria) were to be fulfilled simultaneously within the last 24 hours, and vasopressors infused continuously at enrolment. Definition of sepsis is that of suspected or documented infection and an acute increase of ≥2 sequential organ failure assessment (SOFA) points consequent to the infection (a proxy of organ dysfunction). Definition of septic shock are sepsis and need for vasopressor therapy to keep mean arterial pressure (MAP) >65 mmHg for >2 hours and lactate >2 mmol/L, despite adequate fluid resuscitation.
All eligible patients with septic shock are randomised to receive either: • (i) Mega-dose Vitamin C intravenous infusion (sodium ascorbate 30 grams [100 ml] diluted with 150 ml of 5% dextrose infused intravenously over 1 hour followed by sodium ascorbate 30 grams [100 ml] diluted with 150 ml of 5% dextrose infused intravenously over 5 hours); or • (ii) Placebo intravenous infusion administered once (250 ml of 5% dextrose infused intravenously over 1 hour followed by 250 ml of 5% dextrose infused intravenously over 5 hours).
The study infusions are identical in appearance and are supplied in identical 250m1 5% dextrose bags prepared by ICU staff.
Vitamin C levels and arterial blood gas samples are measured at five time points (before loading infusion; after loading dose; 3 hours after the beginning of maintenance infusion; at the end of maintenance infusion; and, 24 hours following the beginning of the study infusion). A single urinary assessment is made of oxalate crystals obtained from testing a 24-hour collection of urine obtained at 24 hours following the beginning of the study infusion. Arterial blood gas samples are also measured to monitor for changes in serum sodium (Na+) and potassium (K+) levels at four time points (before loading infusion [baseline]; after loading dose; 3 hours after the beginning of maintenance infusion; and, at the end of maintenance infusion). The study infusion is stopped if the serum Na+ levels increases >10 mEq/L from the baseline value or absolute serum Na+ levels>160 mEq/L. Information is also collected on fluid balance, intravenous fluid therapy, use of vasopressor drugs and dosage, use of mechanical ventilation and renal replacement therapy and all biochemical and hematological and blood gas analysis variables as well as patient demographics, diagnosis, vital signs and illness severity score, ICU and hospital outcomes (e.g. admission and discharge dates as well as ICU and hospital survival status).
The primary efficacy outcome for this study is the cumulative urine output for 24 consecutive hours following the beginning of the study infusion.
Data analysis is performed on an intention-to-treat basis. Summary statistics are used to describe the clinical data and presented as mean±standard deviation, median with interquartile range (IQR) or percentages as appropriate. Chi-squared analysis with Fisher's exact test (as appropriate), and Student's t-test (Mann Whitney U test for non-normal distributions) are used to compare data between the active treatment group and the control group with statistical significance declared for probability values of less than 0.05. Analysis of the outcome of excluded patients due to other trials etc. is in accordance with CONSORT guidelines.

[4] = 1, 2 and 3 g/kg sodium ascorbate compared, n=2 each
[5] = 3 g/kg sodium ascorbate for 7 hours, n=2

O=C1O[C@H]([C@@H](O)CO)C([O-])=C1O.[Na+] [sodium ascorbate]
urinary output ([1]; 1st hour post initiation of treatment, 10 ml/hr prior to treatment): 175 mL/h | urinary output ([1]; 2nd hour post initiation of treatment): 160 mL/h | urinary output ([1]; 3rd hour post initiation of treatment): 400 mL/h | urinary output ([1]; 4th hour post initiation of treatment): 180 mL/h | urinary output ([1]; 5th hour post initiation of treatment): 125 mL/h | urinary output ([1]; 6th hour post initiation of treatment): 145 mL/h | arterial blood oxygen levels ([1]; after 6 hours of sodium ascorbate treatment, 65 pre-treatment, FiO2:40%): 90 mm Hg | time to extubation ([1]; after the treatment (intensive care day 15)): 12 days | time to discharge from hospital without any complications ([1]; after treatment): 22 days | lactate ([1]; during the treatment, decreased from 2.6): 1.9 mmol/L | FiO2 ([1]; during the treatment, dropped from 0.45, positive end-expiratory pressure 14 cm H2O): 0.30 | heart rate ([1]; during the treatment, dropped from 130): 105 beats/min | time in which blood pressure normalised, vasopressor requirements reduced and renal function improved ([1]; human patient with COVID-19, mega dose intravenous vitamin C): less than six hours | urine flow ([1]; increase during the treatment, from 10): 400 mL/h | plasma creatinine ([1]; over the course of sodium ascorbate administration (30 g over 30 minutes then 30 g infusion), 118 before treatment, n=1): 84 µmol/L | norepinephrine infusion ([1]; over the course of sodium ascorbate administration, 8 before): 0 µg/min | increase in urinary output [2, 4]: greatest in the 3 g/kg sodium ascorbate treatment group | normalisation of body temperature [2, 4]: strongest in the 3 g/kg sodium ascorbate treatment group | recovery in arterial PO2 [2, 4]: strongest in the 3 g/kg sodium ascorbate treatment group | reduction in arterial blood lactate levels [2, 4]: greatest in the 3 g/kg sodium ascorbate treatment group | norepinephrine dose requirements ([2]; 1, 2 and 3 g/kg sodium ascorbate for 7 hours, n=2 each): reduction in norepinephrine dose requirements with increased sodium ascorbate doses | renal medullary oxygen levels [2, 5]: improvement | vasopressor requirements for attaining target blood pressure (75-80 mm Hg) [2, 5]: Total withdrawal of vasopressor requirements | adverse side-effects ([2]; during these pre-clinical studies): No adverse side-effects were observed | dose required to provide optimal benefits towards reversing the pathophysiological features of sepsis ([2]; intravenous, based on dose response analysis and Examples 1 and 2): at least 3 g/kg | body temperature ([3]; 60 g/day iv): decreases | oxalate excretion in the urine ([3]; 60 g/day iv): no evidence of increased oxalate excretion | requirement for vasopressor support ([3]; 60 g/day iv): decreases | serum sodium levels ([3]; 60 g/day iv): no evidence of increased oxalate excretion in the urine or increases in serum sodium levels | urinary output ([3]; 60 g/day iv): increases | safety concern signal ([3]; sodium ascorbate 30 g over 1 hour then 30 g over 5 hours iv (60 g/day)): no safety concern signal
